The values below are quoted from earlier work in patent publication US8877808B2, “Protection against skin diseases by aurin tricarboxylic acid and its derivatives” (Aurin Biotech Inc., priority 2012, dated 2014).

The data set has as its target C9 binding to C5b678 (Homo sapiens, UniProt P02748). Particulars: Lee et al. 2012a.

Chain of C9 binding to C5b678 (P02748 22-559): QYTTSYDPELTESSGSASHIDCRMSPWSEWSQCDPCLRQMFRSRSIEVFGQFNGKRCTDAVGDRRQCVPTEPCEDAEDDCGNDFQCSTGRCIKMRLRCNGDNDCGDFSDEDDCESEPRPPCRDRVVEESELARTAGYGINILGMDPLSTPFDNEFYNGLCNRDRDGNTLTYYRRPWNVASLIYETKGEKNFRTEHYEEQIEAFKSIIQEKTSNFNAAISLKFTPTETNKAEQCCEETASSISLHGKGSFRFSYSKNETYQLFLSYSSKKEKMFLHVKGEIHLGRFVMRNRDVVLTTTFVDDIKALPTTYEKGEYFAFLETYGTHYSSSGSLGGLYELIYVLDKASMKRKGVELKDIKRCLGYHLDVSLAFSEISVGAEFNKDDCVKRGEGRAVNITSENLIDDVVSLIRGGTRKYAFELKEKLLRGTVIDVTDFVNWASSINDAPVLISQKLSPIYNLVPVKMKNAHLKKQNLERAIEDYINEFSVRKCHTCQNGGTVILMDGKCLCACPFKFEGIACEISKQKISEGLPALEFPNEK

As to aurin hexacarboxylic acid [AHA], the “block of classical pathway at C9 binding to C5b678, formation of the MAC (C5b-9)” value is on record as “block classical pathway formation at the stage of C9 binding to C5b678”.
For the substance aurin quadracarboxylic acid [AQA], the “block of classical pathway at C9 binding to C5b678, formation of the MAC (C5b-9)” value was “block classical pathway formation at the stage of C9 binding to C5b678”.
